Test [1] addresses T1, HDAC1 enzyme (Homo sapiens, UniProt Q13547).
T1 construct: prepared by transducing full length HDAC1 and HDAC6 genes into Sf-9 insect cells; GST; purchased SignalChem; host or cells: Sf-9 insect cells
The test is described as follows: HDAC1 enzyme inhibitory assay (HDAC-Glo I/II Assay kit). The test is classed as biochemical. The following applies: 1 μM test compound; for inhibition at 1 µM: read-out: HDAC1 inhibitory rate (%) (1 μM). The method, then:
HDAC1 enzyme and HDAC6 enzyme each prepared by transducing full length HDAC1 and HDAC6 genes into Sf-9 insect cells and purifying by GST affinity column were purchased from SignalChem. Using these enzymes, HDAC1 and/or HDAC6 enzyme inhibitory activities of the compound of the present invention were evaluated. Enzymes were used after preserved at −70° C. HDAC1 or HDAC6 enzyme inhibitory activity of the compound of the present invention was measured using HDAC-Glo™ I/II Assay kit (Promega) according to the following experimental method. The test compound diluted with assay buffer (24 mM Tris-HCl (pH 7.5), 1 mM MgCl2, 0.35 mM KCl, 135 mM NaCl, 0.6 mM Glutathione, 0.01% Tween-20) was added to a 384-well plate by each 2 μL. Then, HDAC1 or HDAC6 enzyme solution diluted with assay buffer was added thereto by each 4 μL, and the plate was incubated at room temperature for 60 min. After incubated, HDAC substrate-Developer solution prepared according to Promega protocol attached to the assay kit was added to the 384-well plate by each 2 μL, and the enzyme reaction was started. After reacting at room temperature for 20 min, luminescence level was measured using plate reader Envision (PerkinElmer). The inhibitory activity of each compound was calculated as a relative activity value when luminescence level in wells without enzyme is considered as 100% inhibition.

Test [2] has as its target T2, HDAC6 enzyme (Homo sapiens, UniProt Q9UBN7).
T2 construct: prepared by transducing full length HDAC1 and HDAC6 genes into Sf-9 insect cells; GST; purchased SignalChem; host or cells: Sf-9 insect cells
T2 sequence (Q9UBN7 1-1215): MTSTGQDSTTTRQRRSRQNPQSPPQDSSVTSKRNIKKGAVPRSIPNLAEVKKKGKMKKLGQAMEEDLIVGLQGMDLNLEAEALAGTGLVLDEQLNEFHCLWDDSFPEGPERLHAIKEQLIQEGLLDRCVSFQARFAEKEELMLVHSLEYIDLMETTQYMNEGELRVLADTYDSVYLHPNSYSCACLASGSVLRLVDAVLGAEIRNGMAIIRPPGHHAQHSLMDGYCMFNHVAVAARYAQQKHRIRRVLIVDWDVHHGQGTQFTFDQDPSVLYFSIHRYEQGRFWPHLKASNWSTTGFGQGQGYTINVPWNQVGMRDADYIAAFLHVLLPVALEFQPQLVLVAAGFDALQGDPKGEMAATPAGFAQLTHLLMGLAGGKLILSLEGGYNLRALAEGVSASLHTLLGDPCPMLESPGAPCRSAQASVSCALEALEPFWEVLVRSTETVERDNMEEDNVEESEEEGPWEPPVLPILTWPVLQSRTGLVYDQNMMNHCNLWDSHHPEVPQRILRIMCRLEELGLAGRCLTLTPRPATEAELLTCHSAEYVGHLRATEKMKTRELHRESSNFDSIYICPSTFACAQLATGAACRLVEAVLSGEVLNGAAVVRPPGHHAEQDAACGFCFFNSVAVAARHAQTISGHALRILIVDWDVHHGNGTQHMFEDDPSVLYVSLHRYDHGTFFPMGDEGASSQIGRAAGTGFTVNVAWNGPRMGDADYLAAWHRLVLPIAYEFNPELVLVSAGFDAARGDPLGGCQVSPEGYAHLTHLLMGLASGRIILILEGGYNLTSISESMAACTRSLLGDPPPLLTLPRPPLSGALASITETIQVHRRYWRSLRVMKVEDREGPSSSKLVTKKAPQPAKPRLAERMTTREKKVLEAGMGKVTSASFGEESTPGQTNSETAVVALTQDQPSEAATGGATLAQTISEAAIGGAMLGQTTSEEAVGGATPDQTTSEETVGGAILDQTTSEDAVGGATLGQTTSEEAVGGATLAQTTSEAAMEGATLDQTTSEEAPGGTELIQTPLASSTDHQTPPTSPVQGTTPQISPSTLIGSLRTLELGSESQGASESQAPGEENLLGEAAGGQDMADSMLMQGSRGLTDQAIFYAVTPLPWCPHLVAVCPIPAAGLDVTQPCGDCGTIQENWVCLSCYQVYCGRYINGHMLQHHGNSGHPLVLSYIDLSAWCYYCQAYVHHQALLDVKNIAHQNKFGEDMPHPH
The test is described as follows: HDAC6 enzyme inhibitory assay (HDAC-Glo I/II Assay kit). The test is classed as biochemical. The settings on record: 1 μM test compound; for inhibition at 1 µM: read-out: HDAC6 inhibitory rate (%) (1 μM). Put shortly: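 Luminescent HDAC-Glo I/II read-out after 20 min room-temperature reaction with substrate-developer, following a 60 min room-temperature enzyme–compound preincubation. Enzymes: full-length HDAC1 or HDAC6 from Sf-9 cells, GST-purified; buffer pH 7.5 Tris with NaCl, glutathione, 0.01% Tween-20. No-enzyme wells defined 100% inhibition.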

T1 sequence (Q13547 whole entry): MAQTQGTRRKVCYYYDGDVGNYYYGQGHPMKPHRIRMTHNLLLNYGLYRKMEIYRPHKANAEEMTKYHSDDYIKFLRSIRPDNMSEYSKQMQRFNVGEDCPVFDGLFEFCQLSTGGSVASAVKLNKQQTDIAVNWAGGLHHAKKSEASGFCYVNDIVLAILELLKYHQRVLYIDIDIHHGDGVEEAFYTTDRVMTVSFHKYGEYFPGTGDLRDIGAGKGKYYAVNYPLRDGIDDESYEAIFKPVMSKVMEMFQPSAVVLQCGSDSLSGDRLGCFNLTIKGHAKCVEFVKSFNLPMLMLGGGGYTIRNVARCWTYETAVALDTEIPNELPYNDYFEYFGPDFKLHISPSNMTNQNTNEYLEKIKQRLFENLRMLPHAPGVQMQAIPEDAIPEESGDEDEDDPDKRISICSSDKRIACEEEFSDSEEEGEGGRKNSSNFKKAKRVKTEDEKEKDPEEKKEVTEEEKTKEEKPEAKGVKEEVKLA

As for `Cn1nc2c(c1C(=O)N1CCOCC1CNC(=O)c1ccc(-c3noc(C(F)(F)F)n3)cc1)CCCC2` (stereo in doubt) [Example 93, N-(((3S)-4-((2-methyl-4,5,6,7-tetrahydro-2H-indazol-3-yl)carbonyl)morpholin-3-yl)methyl)-4-(5-(trifluoromethyl)-1,2,4-oxadiazol-3-yl)benzamide], the inhibition at 1 µM in test [1] was determined as 21%; in test [2] it was 95%.
The like results for `Cc1nocc1C(=O)N1CCOCC1CNC(=O)c1ccc(-c2noc(C(F)(F)F)n2)cc1` (stereo in doubt) [Example 94, N-(((3S)-4-((3-methyl-1,2-oxazol-4-yl)carbonyl)morpholin-3-yl)methyl)-4-(5-(trifluoromethyl)-1,2,4-oxadiazol-3-yl)benzamide] were, in that order, 30% and 99%.
The like results for `CC(C)(C(=O)N1CCOCC1CNC(=O)c1ccc(-c2noc(C(F)(F)F)n2)cc1)c1ccccc1` (stereo in doubt) [Example 95, N-(((3S)-4-(2-methyl-2-phenylpropanoyl)morpholin-3-yl)methyl)-4-(5-(trifluoromethyl)-1,2,4-oxadiazol-3-yl)benzamide] were, in that order, 30% and 99%.
The like results for `O=C(NCC1COCCN1C(=O)C(F)(F)c1ccccc1)c1ccc(-c2noc(C(F)(F)F)n2)cc1` (stereo in doubt) [Example 96, N-(((3S)-4-(difluoro(phenyl)acetyl)morpholin-3-yl)methyl)-4-(5-(trifluoromethyl)-1,2,4-oxadiazol-3-yl)benzamide] were, in that order, 40% and 98%.
Consider `O=C(NCC1COCCN1C(=O)C12CC3CC(CC(C3)C1)C2)c1ccc(-c2noc(C(F)(F)F)n2)cc1` (stereo in doubt) [Example 97, N-(((3S)-4-(adamantan-1-ylcarbonyl)morpholin-3-yl)methyl)-4-(5-(trifluoromethyl)-1,2,4-oxadiazol-3-yl)benzamide], for which the inhibition at 1 µM in test [1] is 16%; in test [2] it was 96%.
For `CN(C(=O)N1CCOCC1CNC(=O)c1ccc(-c2noc(C(F)(F)F)n2)cc1)c1ccccc1` (stereo in doubt) [Example 98, (3S)-N-methyl-N-phenyl-3-(((4-(5-(trifluoromethyl)-1,2,4-oxadiazol-3-yl)benzoyl)amino)methyl)morpholine-4-carboxamide], the inhibition at 1 µM was determined as 15% in test [1] and 98% in test [2].
On to `O=C(NCC1COCCN1C(=O)N1CCOCC1)c1ccc(-c2noc(C(F)(F)F)n2)cc1` (stereo in doubt) [Example 99, N-(((3S)-4-(morpholin-4-ylcarbonyl)morpholin-3-yl)methyl)-4-(5-(trifluoromethyl)-1,2,4-oxadiazol-3-yl)benzamide], for which the inhibition at 1 µM is 9% in test [1] and 99% in test [2].
Consider `O=C(NCC1COCCN1C(=O)N1CCCC1)c1ccc(-c2noc(C(F)(F)F)n2)cc1` (stereo in doubt) [Example 100, N-(((3S)-4-(pyrrolidin-1-ylcarbonyl)morpholin-3-yl)methyl)-4-(5-(trifluoromethyl)-1,2,4-oxadiazol-3-yl)benzamide], for which the inhibition at 1 µM was determined as 6% in test [1] and 97% in test [2].
Take `CC(C)(C(=O)N1CCOCC1CNC(=O)c1ccc(-c2noc(C(F)(F)F)n2)cc1)n1cccn1` (stereo in doubt) [Example 101, N-(((3S)-4-(2-methyl-2-(1H-pyrazol-1-yl)propanoyl)morpholin-3-yl)methyl)-4-(5-(trifluoromethyl)-1,2,4-oxadiazol-3-yl)benzamide]: the values for the inhibition at 1 µM in test [1] and in test [2] were 17% and 99%, respectively.
The like results for `CCc1noc(C)c1C(=O)N1CCOCC1CNC(=O)c1ccc(-c2noc(C(F)(F)F)n2)cc1` (stereo in doubt) [Example 102, N-(((3S)-4-((3-ethyl-5-methyl-1,2-oxazol-4-yl)carbonyl)morpholin-3-yl)methyl)-4-(5-(trifluoromethyl)-1,2,4-oxadiazol-3-yl)benzamide] were, in that order, 50% and 99%.
As to `O=C(NCC1COCCN1C(=O)C1(c2ccccc2)COC1)c1ccc(-c2noc(C(F)(F)F)n2)cc1` (stereo in doubt) [Example 103, N-(((3S)-4-((3-phenyloxetan-3-yl)carbonyl)morpholin-3-yl)methyl)-4-(5-(trifluoromethyl)-1,2,4-oxadiazol-3-yl)benzamide], the values for the inhibition at 1 µM in test [1] and in test [2] were 35% and 98%, respectively.
The like results for `O=C(NCC1COCCN1C(=O)C1CCNC1=O)c1ccc(-c2noc(C(F)(F)F)n2)cc1` (stereo in doubt) [Example 104, N-(((3S)-4-((2-oxopyrrolidin-3-yl)carbonyl)morpholin-3-yl)methyl)-4-(5-(trifluoromethyl)-1,2,4-oxadiazol-3-yl)benzamide] were, in that order, 9% and 57%.
Consider `O=C(NCC1COCCN1C(=O)C1CCNC1=O)c1ccc(-c2noc(C(F)(F)F)n2)cc1` (stereo in doubt) [Example 105, N-(((3S)-4-((2-oxopyrrolidin-3-yl)carbonyl)morpholin-3-yl)methyl)-4-(5-(trifluoromethyl)-1,2,4-oxadiazol-3-yl)benzamide], for which the “HDAC1 inhibitory rate (%) (1 μM)” value in test [1] is 8%. Moreover, the “HDAC6 inhibitory rate (%) (1 μM)” value in test [2] (1 µM) was found to be 76%.
For the compound `CCn1nccc1C(=O)N1CCOCC1CNC(=O)c1ccc(-c2noc(C(F)(F)F)n2)cc1` (stereo in doubt) [Example 106, N-(((3S)-4-((1-ethyl-1H-pyrazol-5-yl)carbonyl)morpholin-3-yl)methyl)-4-(5-(trifluoromethyl)-1,2,4-oxadiazol-3-yl)benzamide], the figures for the inhibition at 1 µM in test [1] and in test [2] were 51% and 98%, respectively.
The like results for `O=C(NCC1COCCN1C(=O)c1ccccc1)c1ccc(-c2noc(C(F)(F)F)n2)cc1` (stereo in doubt) [Example 111, N-(((3R)-4-benzoylmorpholin-3-yl)methyl)-4-(5-(trifluoromethyl)-1,2,4-oxadiazol-3-yl)benzamide] were, in that order, 21% and 101%.
The like results for `O=C(NCC1COCCN1C(=O)c1cc(Cl)cc(Cl)c1)c1ccc(-c2noc(C(F)(F)F)n2)cc1` (stereo in doubt) [Example 112, N-(((3R)-4-(3,5-dichlorobenzoyl)morpholin-3-yl)methyl)-4-(5-(trifluoromethyl)-1,2,4-oxadiazol-3-yl)benzamide] were, in that order, 16% and 97%.
As for `O=C(NCC1COCCN1C(=O)c1cccc(F)c1)c1ccc(-c2noc(C(F)(F)F)n2)cc1` (stereo in doubt) [Example 113, N-(((3R)-4-(3-fluorobenzoyl)morpholin-3-yl)methyl)-4-(5-(trifluoromethyl)-1,2,4-oxadiazol-3-yl)benzamide], the “HDAC1 inhibitory rate (%) (1 μM)” value in test [1] stood at 17%. The inhibition at 1 µM in test [2] worked out at 97%.

The values above are taken from patent publication US10081624B2, “Heterocyclic compound” (Takeda Pharmaceutical Company Limited, priority 2014, dated 2018).
